The results in this text go back to US11932624B2, “MDM2 degraders and uses thereof” (Kymera Therapeutics, Inc., priority 2020, dated 2024).

SMILES strings stand for the structures.

Broadly, the IC50 is the point on the concentration scale where inhibition reaches its midpoint. The low end stands for greater potency, the high end for weaker potency.

The first assay relates to RS411 cells. As to the kind of experiment: Cell Viability CTG Assay (CellTiter Glo) in RS411 cells. It counts as cell-based. To be noted: Homo sapiens, RS4-11, 24 h, duration 1 day. As for the experimental part: Example 23. Cell Viability CTG Assay
Day 0: Compounds or DMSO 60 nL were stamped to the cell plate as the platemap. RS411 cells were centrifuged at 800 rpm for 5 min, suspended with culture medium, and counted with Countess (Invitrogen). The cell density was adjusted to the recommend information. 30 μL of cell solution (1000 cells/well) was added to the assay plate as the platemap and 30 uL of media was added to column 2 and column 23 as the platemap. The plate was spun down briefly. The final concentration of the compounds started at 10 μM (3 fold dilution and 11 doses) and final DMSO concentration was 0.2%. The plate was spun down briefly and incubated at 37° C., 5% CO2 for 1-4 days.
30 μL CellTiter Glo reagent was added to each well and the plate was centrifuged at 1000 rpm for 30 sec. The plate was shaken for 1 min and centrifuged at 1000 rpm for 30 sec. The plate was incubated at RT for 10 min to stabilize the luminescent signal and the luminescence was read by EnVision.
The letter codes for IC50 indicate the concentration of compound required to affect 50% of cells: A (<0.05 μM), B (0.05-0.1 μM), C (0.1-0.5 μM), D (0.5-1.0 μM), and E (>1.0 μM).
For orientation: Cellular ATP, detected with luciferase, serves as a proxy for viable cell number.
The compound `CCN1[C@@H](C(=O)NC23CCC(C(=O)NCCCCCc4ccc5c(c4)n(C)c(=O)n5C4CCC(=O)NC4=O)(CC2)CC3)[C@H](c2cccc(Cl)c2F)[C@]2(C(=O)Nc3cc(Cl)ccc32)C12CCCCC2` (stereo partly drawn) [I-42] showed an IC50 below 50 nM.
Same read-out and setting: with `Cn1c(=O)n(C2CCC(=O)NC2=O)c2cccc(C#CCOC3CCN(C(=O)c4ccc(NC(=O)[C@@H]5NC6(CCCCC6)[C@@]6(C(=O)Nc7cc(Cl)ccc76)[C@H]5c5cccc(Cl)c5F)cc4)CC3)c21` (stereo partly drawn) [I-43, (3′R,4'S,5′R)-6″-chloro-4′-(3-chloro-2-fluorophenyl)-N-(4-(4-((3-(1-(2,6-dioxopiperidin-3-yl)-3-methyl-2-oxo-2,3-dihydro-1H-benzo[d]imidazol-4-yl)prop-2-yn-1-yl)oxy)piperidine-1-carbonyl)phenyl)-2″-oxodispiro[cyclohexane-1,2′-pyrrolidine-3′,3″-indoline]-5′-carboxamide] the figure was below 50 nM.

The same assay, now with this note: Homo sapiens, RS4-11, 72 h, duration 3 days.
For `CC(C)[C@@H](CS(=O)(=O)C(C)C)N1C(=O)[C@@](C)(CC(=O)Nc2ccc(C(=O)NCCCC#Cc3cccc4c3CN(C3CCC(=O)NC3=O)C4=O)cc2)C[C@H](c2cccc(Cl)c2)[C@H]1c1ccc(Cl)cc1` (stereo partly drawn) [I-27], the IC50 fell in the range of 100 to 500 nM.
The same measure, in the same setting: with `COc1cc(C(=O)NCCCCCc2cccc3c2n(C)c(=O)n3C2CCC(=O)NC2=O)ccc1NC(=O)[C@@H]1N[C@@H](CC(C)(C)C)[C@](C#N)(c2ccc(Cl)cc2F)[C@H]1c1cccc(Cl)c1F` (stereo partly drawn) [I-28] the figure was below 50 nM.

The same assay, now with this note: Homo sapiens, RS4-11, 96 h, duration 4 days.
On to `CCOc1cc(C(C)(C)C)ccc1C1=N[C@@H](c2ccc(Cl)cc2)[C@@H](c2ccc(Cl)cc2)N1C(=O)N1CCN(CC#Cc2cccc3c2CN(C2CCC(=O)NC2=O)C3=O)CC1` (stereo partly drawn) [I-4, 3-[4-[3-[4-[(4S,5R)-2-(4-tert-butyl-2-ethoxy-phenyl)-4,5-bis(4-chlorophenyl)-4,5-dihydroimidazole-1-carbonyl]piperazin-1-yl]prop-1-ynyl]-1-oxo-isoindolin-2-yl]piperidine-2,6-dione], for which the IC50 was 50 to 100 nM.
On the same count and under the same terms, as for `CC(C)[C@@H](CS(=O)(=O)C(C)C)N1C(=O)[C@@](C)(CC(=O)Nc2ccc(C(=O)NCCCOCCCN)cc2)C[C@H](c2cccc(Cl)c2)[C@H]1c1ccc(Cl)cc1` [I-5, N-[3-(3-aminopropoxy)propyl]-4-[[2-[(3R,5R,6S)-5-(3-chlorophenyl)-6-(4-chlorophenyl)-1-[(1S)-1-(isopropylsulfonylmethyl)-2-methyl-propyl]-3-methyl-2-oxo-3-piperidyl]acetyl]amino]benzamide], the figure is above 1000 nM; as for `CC(C)[C@@H](CS(=O)(=O)C(C)C)N1C(=O)[C@@](C)(CC(=O)Nc2ccc(C(=O)NCCOCCOCCOCCNc3cccc4c3C(=O)N(C3CCC(=O)NC3=O)C4=O)cc2)C[C@H](c2cccc(Cl)c2)[C@H]1c1ccc(Cl)cc1` (stereo partly drawn) [I-6, 4-[[2-[(3R,5R,6S)-5-(3-chlorophenyl)-6-(4-chlorophenyl)-1-[(1S)-1-(isopropylsulfonylmethyl)-2-methyl-propyl]-3-methyl-2-oxo-3-piperidyl]acetyl]amino]-N-[2-[2-[2-[2-[[2-(2,6-dioxo-3-piperidyl)-1,3-dioxo-isoindolin-4-yl]amino]ethoxy]ethoxy]ethoxy]ethyl]benzamide], 100 to 500 nM.
On the same count and under the same terms, with `COc1cc(C(=O)NCCCOCCCN)ccc1NC(=O)[C@@H]1N[C@@H](CC(C)(C)C)[C@](C#N)(c2ccc(Cl)cc2F)[C@H]1c1cccc(Cl)c1F` [I-7] the figure was above 1000 nM.
Regarding `CC(C)[C@@H](CS(=O)(=O)C(C)C)N1C(=O)[C@@](C)(CC(=O)Nc2ccc(C(=O)NCCCCCCCNC(=O)c3ccc(NC(=O)C[C@@]4(C)C[C@H](c5cccc(Cl)c5)[C@@H](c5ccc(Cl)cc5)N([C@H](CS(=O)(=O)C(C)C)C(C)C)C4=O)cc3)cc2)C[C@H](c2cccc(Cl)c2)[C@H]1c1ccc(Cl)cc1` [I-8, 4-[2-[(3R,5R,6S)-5-(3-chlorophenyl)-6-(4-chlorophenyl)-3-methyl-1-[(2S)-3-methyl-1-(propane-2-sulfonyl)butan-2-yl]-2-oxopiperidin-3-yl]acetamido]-N-[7-[(4-[2-[(3R,5R,6S)-5-(3-chlorophenyl)-6-(4-chlorophenyl)-3-methyl-1-[(2S)-3-methyl-1-(propane-2-sulfonyl)butan-2-yl]-2-oxopiperidin-3-yl]acetamido]phenyl)formamido]heptyl]benzamide], the IC50 was above 1000 nM.
Still for that read-out and setting: as for `Cn1c(=O)n(C2CCC(=O)NC2=O)c2ccc(CCCCCNC(=O)c3ccc(NC(=O)[C@@H]4NC5(CCCCC5)[C@@]5(C(=O)Nc6cc(Cl)ccc65)[C@H]4c4cccc(Cl)c4F)cc3)cc21` (stereo partly drawn) [I-9], the figure is below 50 nM.
Compound `Cc1ncsc1-c1ccc(CNC(=O)[C@@H]2C[C@@H](O)CN2C(=O)[C@@H](NC(=O)CCCCCCCNC(=O)C[C@@]2(C)C[C@H](c3cccc(Cl)c3)[C@@H](c3ccc(Cl)cc3)N([C@H](CS(=O)(=O)C(C)C)C(C)C)C2=O)C(C)(C)C)cc1` [I-10] registered an IC50 of 100 to 500 nM.
`Cc1ncsc1-c1ccc(CNC(=O)[C@@H]2C[C@@H](O)CN2C(=O)[C@@H](NC(=O)CCCNC(=O)C[C@@]2(C)C[C@H](c3cccc(Cl)c3)[C@@H](c3ccc(Cl)cc3)N([C@H](CS(=O)(=O)C(C)C)C(C)C)C2=O)C(C)(C)C)cc1` [I-11] gave an IC50 above 1000 nM.
Regarding `Cc1ncsc1-c1ccc(CNC(=O)[C@@H]2C[C@@H](O)CN2C(=O)[C@@H](NC(=O)CCCCCCCNC(=O)c2ccc(NC(=O)[C@@H]3NC4(CCCCC4)[C@@]4(C(=O)Nc5cc(Cl)ccc54)[C@H]3c3cccc(Cl)c3F)cc2)C(C)(C)C)cc1` [I-12], the IC50 lay in the range of 50 to 100 nM.
On to `Cc1ncsc1-c1ccc(CNC(=O)[C@@H]2C[C@@H](O)CN2C(=O)[C@@H](NC(=O)CCCNC(=O)c2ccc(NC(=O)[C@@H]3NC4(CCCCC4)[C@@]4(C(=O)Nc5cc(Cl)ccc54)[C@H]3c3cccc(Cl)c3F)cc2)C(C)(C)C)cc1` [I-13], for which the IC50 lay within 500 to 1000 nM.
Regarding `CC(C)[C@@H](CS(=O)(=O)C(C)C)N1C(=O)[C@@](C)(CC(=O)Nc2ccc(C(=O)NCCCCCc3ccc4c(c3)n(C)c(=O)n4C3CCC(=O)NC3=O)cc2)C[C@H](c2cccc(Cl)c2)[C@H]1c1ccc(Cl)cc1` (stereo partly drawn) [I-14], the IC50 was below 50 nM.
`COc1cc(C(=O)NCCCCCc2ccc3c(c2)n(C)c(=O)n3C2CCC(=O)NC2=O)ccc1NC(=O)[C@@H]1N[C@@H](CC(C)(C)C)[C@](C#N)(c2ccc(Cl)cc2F)[C@H]1c1cccc(Cl)c1F` (stereo partly drawn) [I-16] displayed an IC50 below 50 nM.
The same measure, in the same setting: with `COc1cc(C(=O)NCCCC#Cc2ccc3c(c2)n(C)c(=O)n3C2CCC(=O)NC2=O)ccc1NC(=O)[C@@H]1N[C@@H](CC(C)(C)C)[C@](C#N)(c2ccc(Cl)cc2F)[C@H]1c1cccc(Cl)c1F` (stereo partly drawn) [I-17] the figure was below 50 nM; with `COc1cc(C(=O)NCCCCCCCC(=O)N[C@H](C(=O)N2C[C@H](O)C[C@H]2C(=O)NCc2ccc(-c3scnc3C)cc2)C(C)(C)C)ccc1NC(=O)[C@@H]1N[C@@H](CC(C)(C)C)[C@](C#N)(c2ccc(Cl)cc2F)[C@H]1c1cccc(Cl)c1F` [I-19], below 50 nM.
Consider `COc1cc(C(=O)NCCCC(=O)N[C@H](C(=O)N2C[C@H](O)C[C@H]2C(=O)NCc2ccc(-c3scnc3C)cc2)C(C)(C)C)ccc1NC(=O)[C@@H]1N[C@@H](CC(C)(C)C)[C@](C#N)(c2ccc(Cl)cc2F)[C@H]1c1cccc(Cl)c1F` [I-20], for which the IC50 was in the range of 100 to 500 nM.
Still for that read-out and setting: with `CC(C)[C@@H](CS(=O)(=O)C(C)C)N1C(=O)[C@@](C)(CC(=O)NCCCCCCCCc2ccc3c(c2)n(C)c(=O)n3C2CCC(=O)NC2=O)C[C@H](c2cccc(Cl)c2)[C@H]1c1ccc(Cl)cc1` (stereo partly drawn) [I-21] the figure was 50 to 100 nM; with `CC(C)[C@@H](CS(=O)(=O)C(C)C)N1C(=O)[C@@](C)(CC(=O)NCCCCCCCCCCCNC(=O)C[C@@]2(C)C[C@H](c3cccc(Cl)c3)[C@@H](c3ccc(Cl)cc3)N([C@H](CS(=O)(=O)C(C)C)C(C)C)C2=O)C[C@H](c2cccc(Cl)c2)[C@H]1c1ccc(Cl)cc1` [I-23], above 1000 nM; with `CC(C)[C@@H](CS(=O)(=O)C(C)C)N1C(=O)[C@@](C)(CC(=O)NCCCCCCC#Cc2cccc3c2CN(C2CCC(=O)NC2=O)C3=O)C[C@H](c2cccc(Cl)c2)[C@H]1c1ccc(Cl)cc1` (stereo partly drawn) [I-26], 50 to 100 nM.
Same read-out and setting: as for `O=C1CCC(N2Cc3c(C#CCCCNC(=O)c4ccc(NC(=O)[C@@H]5NC6(CCCCC6)[C@@]6(C(=O)Nc7cc(Cl)ccc76)[C@H]5c5cccc(Cl)c5F)cc4)cccc3C2=O)C(=O)N1` (stereo partly drawn) [I-29], the figure is below 50 nM; as for `COc1cc(C(=O)NCCCC#Cc2cccc3c2n(C)c(=O)n3C2CCC(=O)NC2=O)ccc1NC(=O)[C@@H]1N[C@@H](CC(C)(C)C)[C@](C#N)(c2ccc(Cl)cc2F)[C@H]1c1cccc(Cl)c1F` (stereo partly drawn) [I-30], below 50 nM.
The same measure, in the same setting: as for `COc1cc(C(=O)NCCCC#Cc2cccc3c2CN(C2CCC(=O)NC2=O)C3=O)ccc1NC(=O)[C@@H]1N[C@@H](CC(C)(C)C)[C@](C#N)(c2ccc(Cl)cc2F)[C@H]1c1cccc(Cl)c1F` (stereo partly drawn) [I-31], the figure is below 50 nM; as for `COc1cc(C(=O)NCCCCCCCCNC(=O)c2ccc(NC(=O)[C@@H]3N[C@@H](CC(C)(C)C)[C@](C#N)(c4ccc(Cl)cc4F)[C@H]3c3cccc(Cl)c3F)c(OC)c2)ccc1NC(=O)[C@@H]1N[C@@H](CC(C)(C)C)[C@](C#N)(c2ccc(Cl)cc2F)[C@H]1c1cccc(Cl)c1F` [I-32], 100 to 500 nM.
Compound `COc1cc(C(=O)NCCOCCOCCNC(=O)c2ccc(NC(=O)[C@@H]3N[C@@H](CC(C)(C)C)[C@](C#N)(c4ccc(Cl)cc4F)[C@H]3c3cccc(Cl)c3F)c(OC)c2)ccc1NC(=O)[C@@H]1N[C@@H](CC(C)(C)C)[C@](C#N)(c2ccc(Cl)cc2F)[C@H]1c1cccc(Cl)c1F` [I-33] registered an IC50 above 1000 nM.
